For 8 molecules, TGI results are on record in PubChem BioAssay (NCI).

Some test systems named below: HCT-116 colon; SF-539 CNS; MCF7 breast; U251 CNS; MALME-3M melanoma; UACC-62 melanoma; SK-OV-3 ovarian; OVCAR-8 ovarian; ACHN renal; NCI-H23 lung; 786-0 renal; RXF 393 renal; HS 578T breast; KM12 colon; M14 melanoma; SK-MEL-2 melanoma; PC-3 prostate; MDA-MB-231 breast; HCC-2998 colon; K-562 leukemia.
Common to all, as to test: NCI tumour cell line growth inhibition, 48 h

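Growth conditions: 96-well plates. Treatment: test compound, 48 hours, 5 concentrations. Analysis: linear interpolation between bracketing concentrations; unreached endpoints set to highest concentration. TGI marks complete inhibition of growth.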

Consider `COc1cc(C2=C(c3cc(OC)c4ccccc4c3OC)C(=O)c3ccccc3C2=O)c(OC)c2ccccc12`, for which the TGI in the experiment on HCT-116 colon, in the experiment on SF-539 CNS, in the experiment on MCF7 breast, in the experiment with U251 CNS, in the experiment with MALME-3M melanoma and with UACC-62 melanoma was greater than 100 µM throughout. Further, the TGI with SK-OV-3 ovarian, in the experiment with OVCAR-8 ovarian, in the experiment on ACHN renal, with NCI-H23 lung, in the experiment on 786-0 renal and in the experiment on RXF 393 renal was greater than 100 µM in each case. The TGI in the experiment on HS 578T breast, with KM12 colon, in the experiment with M14 melanoma, in the experiment on SK-MEL-2 melanoma and in the experiment with PC-3 prostate was greater than 100 µM throughout.

Regarding `CC1=NN(c2cccc(Cl)c2)C(=N/c2nc3ccccc3s2)/C1=C\c1ccc(Cl)cc1`, the TGI in the experiment with HCT-116 colon came to 30.7 µM; with SF-539 CNS it was 36.4 µM; with MDA-MB-231 breast it was 49.2 µM; with MCF7 breast, 65.3 µM; with U251 CNS it was 28.7 µM; in the experiment with SK-OV-3 ovarian it was 95.3 µM. In addition, the TGI is 39.8 µM in the experiment on OVCAR-8 ovarian; 58.9 µM in the experiment with ACHN renal; 39.3 µM in the experiment on NCI-H23 lung; 34 µM in the experiment on 786-0 renal; 31 µM in the experiment with HCC-2998 colon; 42.1 µM in the experiment on RXF 393 renal. For the same molecule, the TGI in the experiment on HS 578T breast was 60 µM; in the experiment on M14 melanoma, 52.2 µM; in the experiment on SK-MEL-2 melanoma, 34.2 µM; in the experiment on PC-3 prostate, 31.3 µM; in the experiment on K-562 leukemia, greater than 100 µM.

Take `COc1ccc(/C=C2\NC(=S)N(/C=C3\C(=O)Oc4ccccc4C3=O)C2=O)cc1OC`: the TGI in the experiment with HCT-116 colon, with SF-539 CNS, in the experiment with MDA-MB-231 breast, in the experiment on MCF7 breast, in the experiment with U251 CNS and in the experiment with UACC-62 melanoma was greater than 100 µM in each case. Moreover, the TGI with SK-OV-3 ovarian, in the experiment on OVCAR-8 ovarian, in the experiment with ACHN renal, in the experiment with NCI-H23 lung, with 786-0 renal and in the experiment on HCC-2998 colon was greater than 100 µM throughout. The TGI in the experiment with RXF 393 renal, with HS 578T breast, in the experiment on KM12 colon, in the experiment with M14 melanoma, in the experiment with SK-MEL-2 melanoma and in the experiment on PC-3 prostate was greater than 100 µM each time. This molecule also came in with a TGI in the experiment with K-562 leukemia greater than 100 µM.

As for `O=c1ccn2n1Cc1ccccc1C2`, the TGI in the experiment on HCT-116 colon, in the experiment with SF-539 CNS, in the experiment on MDA-MB-231 breast, in the experiment on U251 CNS, in the experiment on MALME-3M melanoma and in the experiment with UACC-62 melanoma was greater than 100 µM in each case. For the same molecule, the TGI in the experiment with SK-OV-3 ovarian, in the experiment with OVCAR-8 ovarian, in the experiment with ACHN renal, in the experiment with NCI-H23 lung, with 786-0 renal and in the experiment with HCC-2998 colon was greater than 100 µM in each case. Moreover, the TGI with RXF 393 renal, with HS 578T breast, in the experiment with KM12 colon, in the experiment on M14 melanoma, with SK-MEL-2 melanoma and in the experiment on PC-3 prostate was greater than 100 µM each time. For the same molecule, in the experiment with K-562 leukemia, the TGI is greater than 100 µM.

As to `CN1CCN(C(=S)N(C(=O)c2ccc(Cl)cc2)c2ccccc2)CC1`, the TGI in the experiment on MDA-MB-231 breast, in the experiment on MCF7 breast, in the experiment on U251 CNS, with MALME-3M melanoma, in the experiment with UACC-62 melanoma and in the experiment with OVCAR-8 ovarian was greater than 100 µM in each case. The TGI with ACHN renal, in the experiment with NCI-H23 lung, with 786-0 renal, with HCC-2998 colon, in the experiment with RXF 393 renal and in the experiment with HS 578T breast was greater than 100 µM each time. In addition, the TGI in the experiment with KM12 colon, in the experiment on M14 melanoma, with SK-MEL-2 melanoma and in the experiment with K-562 leukemia was greater than 100 µM each time.

For the molecule `CCCCCC(C/C=N/N(C)C)C(O)(C(F)(F)F)C(F)(F)F` (stereo not given), the TGI is greater than 100 µM in the experiment with HCT-116 colon; 82.7 µM in the experiment on SF-539 CNS; 70.6 µM in the experiment on MDA-MB-231 breast; greater than 100 µM with U251 CNS; 67.1 µM in the experiment with MALME-3M melanoma; greater than 100 µM in the experiment with UACC-62 melanoma. The TGI in the experiment on SK-OV-3 ovarian is greater than 100 µM; with OVCAR-8 ovarian, greater than 100 µM; in the experiment with ACHN renal, 52.7 µM; with NCI-H23 lung it was greater than 100 µM; in the experiment with 786-0 renal, greater than 100 µM; in the experiment with HCC-2998 colon, greater than 100 µM. Moreover, the TGI in the experiment on RXF 393 renal is 76.3 µM; with HS 578T breast it was 91.8 µM; with KM12 colon, 81.6 µM; in the experiment on M14 melanoma, greater than 100 µM; with SK-MEL-2 melanoma, greater than 100 µM; in the experiment on PC-3 prostate, greater than 100 µM. In addition, the TGI in the experiment with K-562 leukemia is greater than 100 µM.

With `COc1ccc(CCCCl)c(C2=NCCc3cc(OC)c(OC)cc32)c1`, the TGI in the experiment on HCT-116 colon, in the experiment with SF-539 CNS, in the experiment with MDA-MB-231 breast, in the experiment on MCF7 breast, with U251 CNS and in the experiment on UACC-62 melanoma was greater than 100 µM throughout. Moreover, the TGI in the experiment with SK-OV-3 ovarian, in the experiment on OVCAR-8 ovarian, in the experiment on ACHN renal, in the experiment on NCI-H23 lung, in the experiment with 786-0 renal and with HCC-2998 colon was greater than 100 µM throughout. Besides, the TGI in the experiment with RXF 393 renal, in the experiment on HS 578T breast, in the experiment on KM12 colon, in the experiment on M14 melanoma, in the experiment with SK-MEL-2 melanoma and in the experiment on PC-3 prostate was greater than 100 µM each time. In the experiment with K-562 leukemia, the TGI was greater than 100 µM.

As for `OCCOCCN1CCN(CCCN2c3ccccc3Sc3ccc(C(F)(F)F)cc32)CC1`, the TGI is 20.3 µM in the experiment on HCT-116 colon; 25.9 µM with SF-539 CNS; 24 µM with MDA-MB-231 breast; 28.3 µM with MCF7 breast; 24.7 µM with U251 CNS; 19.5 µM in the experiment on UACC-62 melanoma. In addition, the TGI in the experiment on SK-OV-3 ovarian is 33.7 µM; in the experiment on OVCAR-8 ovarian, 30 µM; in the experiment with ACHN renal it was 31.8 µM; in the experiment on NCI-H23 lung, 31 µM; in the experiment with 786-0 renal, 31.3 µM; in the experiment on HCC-2998 colon, 13 µM. Further, the TGI turned out to be 9.85 µM in the experiment with RXF 393 renal; 38.9 µM with HS 578T breast; 20.2 µM in the experiment on KM12 colon; 5.39 µM in the experiment on M14 melanoma; 34.7 µM in the experiment on SK-MEL-2 melanoma; 29.6 µM in the experiment with PC-3 prostate. The molecule further gave a TGI in the experiment with K-562 leukemia of 10.3 µM.
